{
  "source": "the NIST ThermoML archive (doi:10.1016/j.jct.2013.08.004)",
  "assay": "molar enthalpy of vaporization or sublimation",
  "settings": "298.15 K; Liquid; Static calorimetry",
  "note": "Numbers after ± are expanded uncertainties.",
  "data": [
    {"compound": "COC(=O)c1cccn1C", "note": "[methyl 1-methyl-2-pyrrolecarboxylate]", "values": [
      {"measurement": "molar enthalpy", "result": "14.1 ± 0.287", "unit": "kcal/mol"}
    ]}
  ]
}
